Results from patent US20250171437A1 (Agios Pharmaceuticals,Inc., priority 2022, published 2025).

Biological target: T1, human PAH with the R408W mutation (A375 R408W cells) (Homo sapiens, UniProt P00439, R408W)
T1 construct: expressed in transfected cells
T1 sequence (P00439 1-452 R408W): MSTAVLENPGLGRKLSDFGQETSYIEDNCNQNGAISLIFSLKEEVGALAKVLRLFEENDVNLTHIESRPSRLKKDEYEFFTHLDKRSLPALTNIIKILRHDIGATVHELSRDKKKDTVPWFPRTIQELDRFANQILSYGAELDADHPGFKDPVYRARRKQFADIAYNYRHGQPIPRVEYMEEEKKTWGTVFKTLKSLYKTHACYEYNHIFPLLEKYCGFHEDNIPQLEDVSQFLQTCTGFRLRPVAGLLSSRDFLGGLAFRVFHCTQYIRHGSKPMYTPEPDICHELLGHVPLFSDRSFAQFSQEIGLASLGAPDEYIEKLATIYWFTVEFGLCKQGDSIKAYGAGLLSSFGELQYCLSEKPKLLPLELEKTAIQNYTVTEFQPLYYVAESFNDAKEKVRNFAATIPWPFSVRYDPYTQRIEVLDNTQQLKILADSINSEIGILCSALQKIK
Assay: Cell Based Phenylalanine Flux Assay
Details: A375 R408W cells; 24 hrs with compound, then 20 μM sepiapterin and 800 μM 13C9,15N-Phenylalanine for 4 hours; 13C-Tyrosine by LC-MS; average where tested multiple times
Summary of the method: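 A375 cells stably expressing human PAH R408W treated 24 h at 37° C with a 10-point 2-fold dose curve in duplicate, 0.5% DMSO. Then 20 μM sepiapterin and 800 μM 13C9,15N-Phe added for 4 h; 13C-Tyr in media measured by LC-MS to give AC50.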

AC50 | Compound
≤ 500 nM | CC(C)(O)c1nc(C(F)F)c(C(=O)N2CCc3[nH]cnc3[C@H]2c2nc3cc(OC(F)(F)F)ccc3o2)o1 [Example 351, (S)-(4-(difluoromethyl)-2-(2-hydroxypropan-2-yl)oxazol-5-yl)(4-(5-(trifluoromethoxy)benzo[d]oxazol-2-yl)-6,7-dihydro-1H-imidazo[4,5-c]pyridin-5(4H)-yl)methanone]
500 to 1000 nM | CC(C)(O)c1nc(C(F)F)c(C(=O)N2CCc3[nH]cnc3[C@@H]2c2nc3cc(OC(F)(F)F)ccc3o2)o1 [Example 352, (R)-(4-(difluoromethyl)-2-(2-hydroxypropan-2-yl)oxazol-5-yl)(4-(5-(trifluoromethoxy)benzo[d]oxazol-2-yl)-6,7-dihydro-1H-imidazo[4,5-c]pyridin-5(4H)-yl)methanone]
≤ 500 nM | O=C(c1ocnc1C(F)F)N1CCc2[nH]cnc2[C@@H]1c1nc2cc(OC(F)(F)F)ccc2o1 [Example 353, (R)-(4-(difluoromethyl)oxazol-5-yl)(4-(5-(trifluoromethoxy)benzo[d]oxazol-2-yl)-6,7-dihydro-1H-imidazo[4,5-c]pyridin-5(4H)-yl)methanone]
≤ 500 nM | O=C(c1ocnc1C(F)F)N1CCc2[nH]cnc2[C@H]1c1nc2cc(OC(F)(F)F)ccc2o1 [Example 354, (S)-(4-(difluoromethyl)oxazol-5-yl)(4-(5-(trifluoromethoxy)benzo[d]oxazol-2-yl)-6,7-dihydro-1H-imidazo[4,5-c]pyridin-5(4H)-yl)methanone]
500 to 1000 nM | Cc1ccc2oc([C@@H]3c4nc[nH]c4CCN3C(=O)c3nnc(-c4cc[nH]n4)o3)nc2c1 [Example 355, (S)-(5-(1H-pyrazol-3-yl)-1,3,4-oxadiazol-2-yl)(4-(5-methylbenzo[d]oxazol-2-yl)-6,7-dihydro-1H-imidazo[4,5-c]pyridin-5(4H)-yl)methanone]
1000 to 5000 nM | Cc1ccc2oc([C@H]3c4nc[nH]c4CCN3C(=O)c3nnc(-c4cc[nH]n4)o3)nc2c1 [Example 356, (R)-(5-(1H-pyrazol-3-yl)-1,3,4-oxadiazol-2-yl)(4-(5-methylbenzo[d]oxazol-2-yl)-6,7-dihydro-1H-imidazo[4,5-c]pyridin-5(4H)-yl)methanone]
500 to 1000 nM | Cc1ccc2nc([C@@H]3c4nc[nH]c4CCN3C(=O)c3nnc(-c4ccn(C)n4)o3)oc2c1 [Example 357, (S)-(5-(1-methyl-1H-pyrazol-3-yl)-1,3,4-oxadiazol-2-yl)(4-(6-methylbenzo[d]oxazol-2-yl)-6,7-dihydro-1H-imidazo[4,5-c]pyridin-5(4H)-yl)methanone]
1000 to 5000 nM | Cc1ccc2nc([C@H]3c4nc[nH]c4CCN3C(=O)c3nnc(-c4ccn(C)n4)o3)oc2c1 [Example 358, (R)-(5-(1-methyl-1H-pyrazol-3-yl)-1,3,4-oxadiazol-2-yl)(4-(6-methylbenzo[d]oxazol-2-yl)-6,7-dihydro-1H-imidazo[4,5-c]pyridin-5(4H)-yl)methanone]
500 to 1000 nM | Cc1ccc2nc([C@@H]3c4nc[nH]c4CCN3C(=O)c3nnc(-c4cc[nH]n4)o3)oc2c1 [Example 359, (S)-(5-(1H-pyrazol-3-yl)-1,3,4-oxadiazol-2-yl)(4-(6-methylbenzo[d]oxazol-2-yl)-6,7-dihydro-1H-imidazo[4,5-c]pyridin-5(4H)-yl)methanone]
1000 to 5000 nM | Cc1ccc2nc([C@H]3c4nc[nH]c4CCN3C(=O)c3nnc(-c4cc[nH]n4)o3)oc2c1 [Example 360, (R)-(5-(1H-pyrazol-3-yl)-1,3,4-oxadiazol-2-yl)(4-(6-methylbenzo[d]oxazol-2-yl)-6,7-dihydro-1H-imidazo[4,5-c]pyridin-5(4H)-yl)methanone]
≤ 500 nM | Cc1cccc2oc([C@@H]3c4nc[nH]c4CCN3C(=O)c3oc(C(C)(C)O)nc3C(F)F)nc12 [Example 361, (S)-(4-(difluoromethyl)-2-(2-hydroxypropan-2-yl)oxazol-5-yl)(4-(4-methylbenzo[d]oxazol-2-yl)-6,7-dihydro-1H-imidazo[4,5-c]pyridin-5(4H)-yl)methanone]
1000 to 5000 nM | Cc1cccc2oc([C@H]3c4nc[nH]c4CCN3C(=O)c3oc(C(C)(C)O)nc3C(F)F)nc12 [Example 362, (R)-(4-(difluoromethyl)-2-(2-hydroxypropan-2-yl)oxazol-5-yl)(4-(4-methylbenzo[d]oxazol-2-yl)-6,7-dihydro-1H-imidazo[4,5-c]pyridin-5(4H)-yl)methanone]
≤ 500 nM | CN1CCN(c2ccc3c(C(=O)N4CCc5[nH]cnc5[C@H]4c4nc5cccc(F)c5o4)cnn3c2)CC1 [Example 363, (S)-(4-(7-fluorobenzo[d]oxazol-2-yl)-6,7-dihydro-1H-imidazo[4,5-c]pyridin-5(4H)-yl)(6-(4-methylpiperazin-1-yl)pyrazolo[1,5-a]pyridin-3-yl)methanone]
1000 to 5000 nM | CN1CCN(c2ccc3c(C(=O)N4CCc5[nH]cnc5[C@@H]4c4nc5cccc(F)c5o4)cnn3c2)CC1 [Example 364, (R)-(4-(7-fluorobenzo[d]oxazol-2-yl)-6,7-dihydro-1H-imidazo[4,5-c]pyridin-5(4H)-yl)(6-(4-methylpiperazin-1-yl)pyrazolo[1,5-a]pyridin-3-yl)methanone]
500 to 1000 nM | O=C(c1cnn2cc(N3CCOCC3)ccc12)N1CCc2[nH]cnc2[C@H]1c1nc2cccc(F)c2o1 [Example 365, (S)-(4-(7-fluorobenzo[d]oxazol-2-yl)-6,7-dihydro-1H-imidazo[4,5-c]pyridin-5(4H)-yl)(6-morpholinopyrazolo[1,5-a]pyridin-3-yl)methanone]
1000 to 5000 nM | O=C(c1cnn2cc(N3CCOCC3)ccc12)N1CCc2[nH]cnc2[C@@H]1c1nc2cccc(F)c2o1 [Example 366, (R)-(4-(7-fluorobenzo[d]oxazol-2-yl)-6,7-dihydro-1H-imidazo[4,5-c]pyridin-5(4H)-yl)(6-morpholinopyrazolo[1,5-a]pyridin-3-yl)methanone]
1000 to 5000 nM | CC(C)(O)C1CCN(c2ccc3c(C(=O)N4CCc5[nH]cnc5[C@@H]4c4nc5cccc(F)c5o4)cnn3c2)CC1 [Example 367, (R)-(4-(7-fluorobenzo[d]oxazol-2-yl)-6,7-dihydro-1H-imidazo[4,5-c]pyridin-5(4H)-yl)(6-(4-(2-hydroxypropan-2-yl)piperidin-1-yl)pyrazolo[1,5-a]pyridin-3-yl)methanone]
500 to 1000 nM | CC(C)(O)C1CCN(c2ccc3c(C(=O)N4CCc5[nH]cnc5[C@H]4c4nc5cccc(F)c5o4)cnn3c2)CC1 [Example 368, (S)-(4-(7-fluorobenzo[d]oxazol-2-yl)-6,7-dihydro-1H-imidazo[4,5-c]pyridin-5(4H)-yl)(6-(4-(2-hydroxypropan-2-yl)piperidin-1-yl)pyrazolo[1,5-a]pyridin-3-yl)methanone]
≤ 500 nM | O=C(c1cnn2cc(N3CCC(F)CC3)ccc12)N1CCc2[nH]cnc2[C@H]1c1nc2cccc(F)c2o1 [Example 369, (S)-(4-(7-fluorobenzo[d]oxazol-2-yl)-6,7-dihydro-1H-imidazo[4,5-c]pyridin-5(4H)-yl)(6-(4-fluoropiperidin-1-yl)pyrazolo[1,5-a]pyridin-3-yl)methanone]
1000 to 5000 nM | O=C(c1cnn2cc(N3CCC(F)CC3)ccc12)N1CCc2[nH]cnc2[C@@H]1c1nc2cccc(F)c2o1 [Example 370, (R)-(4-(7-fluorobenzo[d]oxazol-2-yl)-6,7-dihydro-1H-imidazo[4,5-c]pyridin-5(4H)-yl)(6-(4-fluoropiperidin-1-yl)pyrazolo[1,5-a]pyridin-3-yl)methanone]
500 to 1000 nM | O=C(c1cnn2cc(N3CCC(O)CC3)ccc12)N1CCc2[nH]cnc2[C@H]1c1nc2cccc(F)c2o1 [Example 371, (S)-(4-(7-fluorobenzo[d]oxazol-2-yl)-6,7-dihydro-1H-imidazo[4,5-c]pyridin-5(4H)-yl)(6-(4-hydroxypiperidin-1-yl)pyrazolo[1,5-a]pyridin-3-yl)methanone]
1000 to 5000 nM | O=C(c1cnn2cc(N3CCC(O)CC3)ccc12)N1CCc2[nH]cnc2[C@@H]1c1nc2cccc(F)c2o1 [Example 372, (R)-(4-(7-fluorobenzo[d]oxazol-2-yl)-6,7-dihydro-1H-imidazo[4,5-c]pyridin-5(4H)-yl)(6-(4-hydroxypiperidin-1-yl)pyrazolo[1,5-a]pyridin-3-yl)methanone]
≤ 500 nM | O=C(c1ocnc1C(F)F)N1CCc2[nH]cnc2[C@H]1c1nc2c(F)ccc(F)c2o1 [Example 373, (S)-(4-(4,7-difluorobenzo[d]oxazol-2-yl)-6,7-dihydro-1H-imidazo[4,5-c]pyridin-5(4H)-yl)(4-(difluoromethyl)oxazol-5-yl)methanone]
≤ 500 nM | O=C(c1ocnc1C(F)F)N1CCc2[nH]cnc2[C@@H]1c1nc2c(F)ccc(F)c2o1 [Example 374, (R)-(4-(4,7-difluorobenzo[d]oxazol-2-yl)-6,7-dihydro-1H-imidazo[4,5-c]pyridin-5(4H)-yl)(4-(difluoromethyl)oxazol-5-yl)methanone]
500 to 1000 nM | CC(C)(O)c1nc(C(F)F)c(C(=O)N2CCc3[nH]cnc3[C@H]2c2nc3cc(Cl)ccc3o2)o1 [Example 375, (S)-(4-(5-chlorobenzo[d]oxazol-2-yl)-6,7-dihydro-1H-imidazo[4,5-c]pyridin-5(4H)-yl)(4-(difluoromethyl)-2-(2-hydroxypropan-2-yl)oxazol-5-yl)methanone]
